Values quoted from earlier work in patent US9700574B2, “Use of secnidazole in treatment of dental infections” (ATHENA PHARMACEUTIQUES SAS, priority 2011, dated 2017).

How the values were obtained:
[1] = in vivo
[2] = test system: tested microorganisms; details: in vitro; oro-dental gel for the periodontal pocket; Drug Development and Industrial Pharmacy 34:1356-1367, 2008

SMILES | half-life [1] | minimal inhibition concentration for the tested microorganisms [2]
CC[C@H]1OC(=O)[C@H](C)[C@@H](O[C@H]2C[C@@](C)(OC)[C@@H](O)[C@H](C)O2)[C@H](C)[C@@H](O[C@@H]2O[C@H](C)C[C@H](N(C)C)[C@H]2O)[C@](C)(O)C[C@@H](C)CN(C)[C@H](C)[C@@H](O)[C@]1(C)O [azithromycine] | about 20 hours | 
Cc1ncc([N+](=O)[O-])n1CC(C)O (stereo not drawn) [secnidazole, alpha-2-dimethyl-5-nitro-1H-imidazole-1-ethanol] | about 25 hours | 0.125-5 μg of secnidazole per ml of gel
